Test results from US7550469B2, “Heterocyclic amide derivatives and their use as dopamine D3 receptor ligands” (Aventis Pharmaceuticals Inc., priority 2001, dated 2009).
Where two headings read alike, the source gives them in different places. Each block holds one compound with its values, some of them ahead of it.

Biological target: T1, cloned human dopamine D3 receptors (Homo sapiens, UniProt P35462)
T1 construct: expressed in transfected cells; membrane homogenate
Assay: [N-Methyl-3H]Spiroperidol binding to cloned human dopamine D3 receptors (Protocol 1)
Description: [N-Methyl-^3H]Spiroperidol Binding to Cloned Human Dopamine D3 Receptors
This assay measures the in vitro activity of compounds on cloned human dopamine (D3) receptors and predicts the direct dopamine-blocking properties of putative neuropsychiatric agents at human dopamine D3 receptors.
The D3 gene was isolated from a human striatal cDNA library (Stratagene). The gene was sequenced and sub-cloned into the expression vector RC/RSV (Invitrogen). CHO (Chinese Hamster Ovary) cells were stably transfected with 10 μg of the D3/RSV plasmid using the DOTAP method from Boehringer Mannheim and 72 clones that were G418 resistant were isolated. Using mRNA and binding displacement data a single high expressing clone was identified. This clone was then grown in large batches for the purpose of developing a 96 well format assay.
• 1. One plate (10 cm) with approximately 2-3 million D3 cells per plate is incubated with 1 ml of Trypsin-EDTA at room temperature for ˜2 min or until cells have lifted off plates. Four ml of Ham's F12+10% Fetal Bovine Serum+1% Penicillin/Streptomycin+G418 (400 μg/ml) medium are added to resuspend cells and 1 ml of this is added to each large plate (15 cm) containing 19 ml of the-same medium as mentioned above. • 2. The 5 large plates are incubated at 37° C.+5% CO2 for ˜3 days or until the cells are confluent. • 3. After these plates are confluent, they are split into 10 large plates. Medium is aspirated off, 2 ml of Trypsin-EDTA are added to each plate and plates are incubated at RT for 2 min or until cells have lifted off the plate. Eight ml of the F12 medium (same medium as #1 above) are added to each plate (10 ml total) to resuspend the cells and 5 ml are transferred to the 2 new plates containing 15 ml of the F12 media. • 4. The 10 large plates are incubated at 37° C.+5% CO2 for ˜2 days or until the cells are confluent. • 5. The 10 large plates are split into 60 large plates (using Trypsin-EDTA as #3 except 4 ml of F12 medium are added to resuspend cells and 1 ml is aliquoted to 6 new plates containing 19 ml of F12 medium each). • 6. Plates are incubated at […]+5% CO2 for ˜3 days or until cell are confluent. • 7. The 60 large plates are then split into 60 roller bottles (100-150 million cells/bottle). Medium is aspirated off, 2 ml of Trypsin-EDTA are added to each plate and incubated at RT for ˜2 minutes or until cells have lifted off plates. Eight ml of F12 medium are added to each plate to resuspend cells and the entire 10 ml are added to 1 roller bottle containing 90 ml of the F12 medium. • 8. The 60 roller bottles are immediately placed on their sides and transferred to the roller bottle incubator. They are incubated at 37° C.+5% CO2 for ˜3-5 days. Cells are spun at 30-40% motor speed in the Forma incubator. • 9. Medium is poured off and cells are washed 2× in PBS. • 10. Cells are then scraped off in 20 ml of PBS and the bottles are rinsed again with 5 ml of PBS to remove any remaining cells. Cells are stored on ice before membrane preparation. • 11. The yield for 60 D3 roller bottles has varied from ˜260-500 mg. • Note: All tissue culture reagents are from Gibco-BRL. C. Membrane Preparation
The cells are harvested into 250 ml centrifuge tubes with 100 volumes of cold phosphate buffered saline (PBS) and spun down (1200×G for 10 min at 4° C.). The medium is removed and 100 ml PBS are added to each centrifuge tube, cells are resuspend and spun down again. The PBS is removed and the final pellet is homogenized in an appropriate volume of 10% DMSO with a polytron on ice at a medium setting.
1. 0.5M Tris Buffer, pH 7.7 • a) 44.4 g Tris HCl 26.5 g Tris Base q.s. to 1 Liter (0.5 M Tris buffer, pH 7.7 at 37° C.) • b) make a 1:10 dilution in distilled H2O (0.05 M. Tris buffer, pH 7.7) 2. Tris Buffer Containing Physiological Salts • a) Stock buffer • NaCl 7.014 g • KCl 0.372 g • CaCl2 0.222 g • MgCl2 0.204 g • q.s. To 100 ml with 0.5 M. Tris Buffer • b) Dilute 1:10 in distilled H2O […]

[1] = the 16th table, read-out: D3 Ki
[2] = the 13th table, unit inferred, read-out: D3Ki
[3] = the 14th table, read-out: D3 Ki
[4] = the 19th table, read-out: D3 Ki
[5] = the 15th table, read-out: D3 Ki

T1 sequence (P35462 whole entry): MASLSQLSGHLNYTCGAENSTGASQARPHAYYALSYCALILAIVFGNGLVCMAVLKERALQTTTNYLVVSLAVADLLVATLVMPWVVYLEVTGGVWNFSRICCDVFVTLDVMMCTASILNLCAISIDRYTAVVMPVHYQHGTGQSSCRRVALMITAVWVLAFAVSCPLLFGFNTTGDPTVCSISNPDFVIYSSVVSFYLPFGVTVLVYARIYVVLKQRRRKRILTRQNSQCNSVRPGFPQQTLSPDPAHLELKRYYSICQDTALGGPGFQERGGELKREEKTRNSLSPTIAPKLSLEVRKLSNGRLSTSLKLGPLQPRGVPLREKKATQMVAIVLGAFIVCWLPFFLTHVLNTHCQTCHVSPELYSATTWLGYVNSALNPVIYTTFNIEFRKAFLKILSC

Structure (SMILES): O=C(Cc1ccccc1)NC[C@@H]1CC1CN1CCCN(c2csc3cc(F)ccc23)CC1 (some centres unmarked) [compound 831204]
Ki (the 17th table, read-out: D3 Ki): 0.00505 µM

Structure (SMILES): O=C(NCCCCN1CCCN(c2csc3cc(F)ccc23)CC1)c1cc2c(Cl)cc(Cl)cc2o1 [compound 827124]
Ki (Table 2, read-out: D3K1): 0.0166 µM
Ki [1]: 0.0166 µM

Structure (SMILES): O=C(/C=C/c1ccccc1)NCCCCN1CCCN(c2csc3cc(F)ccc23)CC1 [S981850]
Ki [2]: 0.000489 µM

Structure (SMILES): O=C(NC/C=C\CN1CCN(c2csc3cc(C(F)(F)F)ccc23)CC1)c1cccc(C(F)(F)F)c1 [compound 826346]
Ki (read-out: D3K1): 0.17 µM

Structure (SMILES): O=C(Nc1cccc(CN2CCN(c3csc4cc(F)ccc34)CC2)c1)c1cccs1 [compound 822159]
Ki [4]: 0.0967 µM

Structure (SMILES): C[C@@H]1CN(c2csc3cc(F)ccc23)C[C@H](C)N1CCCCNC(=O)c1cccc(F)c1 [compound 827053]
Ki (the 21st table, read-out: D3 Ki): 0.0539 µM

Structure (SMILES): CCCCCCC(=O)NCCCCCN1CCC(c2noc3ccsc23)CC1 [compound 816202]
Ki [2]: 0.326 µM

Structure (SMILES): O=C(NCCCCN1CCN(c2c(-c3ccccc3)sc3cc(F)ccc23)CC1)c1ccc(Br)cc1 [compound 815874]
Ki (Table 2, read-out: D3K1): 0.282 µM

Structure (SMILES): Cc1ccccc1C(=O)NCCCCN1CCCN(c2csc3cc(F)ccc23)CC1 [compound 822199]
Ki [2]: 0.0038 µM

Structure (SMILES): O=C(Nc1ccc(CN2CCN(c3csc4cc(F)ccc34)CC2)cc1)c1ccc(-c2ccccc2)cc1 [compound 822210]
Ki [4]: 0.0395 µM

Structure (SMILES): COc1ccc(C(=O)NCC2C(CN3CCN(c4csc5cc(C(F)(F)F)ccc45)CC3)C2(C)C)cc1OC (centres unmarked) [compound 826272]
Ki (read-out: D3K1): 0.062 µM

Structure (SMILES): O=C(NCC(CO)CCN1CCN(c2csc3cc(C(F)(F)F)ccc23)CC1)c1cccs1 (centres unmarked) [818926ES]
Ki (Table 2, read-out: D3K1): 0.206 µM

Structure (SMILES): Cn1c(C(=O)NCCCCN2CCCN(c3csc4cc(F)ccc34)CC2)cc2ccccc21 [822228G]
Ki [2]: 0.00178 µM

Structure (SMILES): O=C(NCCCCN1CCN(c2n[nH]c3ccsc23)CC1)c1ccc(F)cc1 [compound 825162]
Ki (the 22nd table, read-out: D3 Ki): 0.114 µM

Structure (SMILES): O=C(Cc1ccccc1)NCCCCN1C2CCC1CC(c1noc3cc(F)ccc13)C2 (centres unmarked) [compound 816327]
Ki [5]: 0.392 µM

Structure (SMILES): O=C(NCCCCCN1CCCN(c2csc3cc(F)ccc23)CC1)c1ccc(-c2ccccn2)s1 [S984501]
Ki [2]: 0.0158 µM

Structure (SMILES): O=C(NC/C=C\CN1CCN(c2csc3cc(C(F)(F)F)ccc23)CC1)C1CCCCC1 [compound 826339]
Ki (read-out: D3K1): 0.024 µM

Structure (SMILES): O=C(NCCCCN1C2CCC1CC(c1noc3ccccc13)C2)c1cccs1 (centres unmarked) [compound 816519]
Ki [5]: 0.305 µM

Structure (SMILES): COc1cccc2cc(C(=O)NCCCCN3CCCN(c4csc5cc(F)ccc45)CC3)oc12 [compound 827121]
Ki (Table 2, read-out: D3K1): 0.0216 µM
Ki [1]: 0.0216 µM

Further lines, results first:

Ki [3]: 0.00566 µM
Structure (SMILES): O=C(NCCCCCN1CCN(c2csc3cc(F)ccc23)CC1)c1ccc2cc[nH]c2c1 [compound 826790]

Ki (Table 2, read-out: D3K1): 0.331 µM
Structure (SMILES): Cc1ccc(C(=O)NCC(CO)CCN2CCN(c3csc4cc(C(F)(F)F)ccc34)CC2)cc1 (centres unmarked) [818921ES]

Ki [2]: 0.029 µM
Structure (SMILES): O=C(NCCCCN1CCCN(c2csc3cc(C(F)(F)F)ccc23)CC1)c1ccc(-c2ccccc2)cc1 [S980641]

Ki (Table 2, read-out: D3K1): 0.0037 µM
Ki (read-out: D3K1): 0.0037 µM
Ki [3]: 0.0037 µM
Structure (SMILES): O=C(NCCCCCCN1CCN(c2csc3cc(C(F)(F)F)ccc23)CC1)c1cc2ccccc2[nH]1 [compound 816315]

Ki (Table 2, read-out: D3K1): 0.00189 µM
Ki [1]: 0.00189 µM
Structure (SMILES): O=C(NCCCCN1CCCN(c2csc3cc(F)ccc23)CC1)c1ccc2ncccc2c1 [compound 817262]

Ki [2]: 0.0259 µM
Structure (SMILES): O=C(NCCCCCN1CCCN(c2csc3cc(F)ccc23)CC1)c1cccc(F)c1 [S984493]

Ki (read-out: D3K1): 0.0139 µM
Ki [3]: 0.0139 µM
Structure (SMILES): COc1ccc2[nH]c(C(=O)NCCCCCN3CCN(c4csc5cc(C(F)(F)F)ccc45)CC3)cc2c1 [compound 826795]

Ki (read-out: D3K1): 0.0272 µM
Ki [3]: 0.0272 µM
Structure (SMILES): O=C(NCCCCCN1CCN(c2csc3cc(C(F)(F)F)ccc23)CC1)c1ccc2cc[nH]c2c1 [compound 826800]

Ki (Table 2, read-out: D3K1): 0.324 µM
Structure (SMILES): O=C(NCCC(CO)CN1CCN(c2csc3cc(C(F)(F)F)ccc23)CC1)c1ccc2ccccc2c1 (centres unmarked) [818619ES]

Ki [2]: 0.018 µM
Structure (SMILES): O=C(NCCCCN1CCCN(c2csc3cc(C(F)(F)F)ccc23)CC1)c1cc2ccccc2s1 [S980636]

Ki (read-out: D3K1): 0.203 µM
Ki [3]: 0.203 µM
Structure (SMILES): CC(=O)Nc1ccc(C(=O)N[C@@H](CO)CCCN2CCN(c3csc4cc(C(F)(F)F)ccc34)CC2)cc1 [compound 815667]
